Reference: ChEMBL document CHEMBL1201862, “PubChem BioAssay data set” (2004)
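Protocol summary: plate cells (96-well), add compound at 5 concentrations, incubate 48 h, interpolate endpoints linearly. GI50 is the concentration that inhibits growth by half.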 Calls of active or inactive are those of the source. No stated cut-off is given here; in the data, active = GI50 up to about 1.1 µM and inactive = higher.

How the values were obtained:
Experiment in all cases: NCI tumour cell line growth inhibition, 48 h
UACC-257 = test system: UACC-257
HCT-116 = test system: HCT-116
U-251 = test system: U-251
SF-539 = test system: SF-539
DU-145 = test system: DU-145
HOP-62 = test system: HOP-62
LOX IMVI = test system: LOX IMVI
IGROV-1 = test system: IGROV-1
MCF7 = test system: MCF7
K562 = test system: K562
HCT-15 = test system: HCT-15
A549 = test system: A549
RXF 393 = test system: RXF 393
TK-10 = test system: TK-10
OVCAR-3 = test system: OVCAR-3
SK-MEL-2 = test system: SK-MEL-2
BT-549 = test system: BT-549
CAKI-1 = test system: CAKI-1
PC-3 = test system: PC-3

Measured: GI50

COc1ccc(-n2nnnc2C2(Nc3ccccc3)CCN(Cc3ccccc3)CC2)cc1
7.21 µM: HCT-15
inactive: UACC-257 13.8 µM | HCT-116 7.8 µM | U-251 16.4 µM | SF-539 16.4 µM | DU-145 24.9 µM | HOP-62 16.5 µM | LOX IMVI 9.29 µM | IGROV-1 11.9 µM | MCF7 7.73 µM | K562 3.13 µM | A549 14.2 µM | RXF 393 17.5 µM | TK-10 12.4 µM

COc1ccc(/C=C/[N+](=O)[O-])cc1
3.7 µM: HCT-15
inactive: UACC-257 2.94 µM | OVCAR-3 3.61 µM | HCT-116 6.67 µM | U-251 4.03 µM | SF-539 1.66 µM | SK-MEL-2 20 µM | DU-145 6.52 µM | HOP-62 8.07 µM | LOX IMVI 2.13 µM | IGROV-1 3.57 µM | MCF7 2.02 µM | K562 3.53 µM | A549 2.51 µM | TK-10 13 µM

Cc1ccc(S(=O)(=O)N2CCC2c2ccccc2)cc1 (configuration not stated)
inactive: UACC-257 47.3 µM | OVCAR-3 81.5 µM | HCT-116 52.8 µM | U-251 > 100 µM | SF-539 > 100 µM | SK-MEL-2 > 100 µM | HOP-62 > 100 µM | LOX IMVI > 100 µM | IGROV-1 > 100 µM | K562 41.8 µM | A549 67.5 µM | RXF 393 84.5 µM | TK-10 > 100 µM
> 100 µM: HCT-15

O=c1[nH]c(=O)n([C@@H]2O[C@H](CO)[C@@H](O)[C@@H]2F)cc1I [FIALURIDINE]
> 100 µM: HCT-15
inactive: UACC-257 > 100 µM | OVCAR-3 > 100 µM | HCT-116 > 100 µM | U-251 > 100 µM | SF-539 > 100 µM | DU-145 > 100 µM | BT-549 39.2 µM | HOP-62 > 100 µM | CAKI-1 > 100 µM | LOX IMVI 46.3 µM | IGROV-1 > 100 µM | MCF7 67.6 µM | K562 > 100 µM | A549 44.2 µM | RXF 393 54.1 µM | TK-10 > 100 µM

Cn1c(-c2c(C3=CC(=O)N(c4ccccc4)C3=O)c3ccccc3n2C)cc2ccccc21
> 100 µM: HCT-15
inactive: UACC-257 > 100 µM | OVCAR-3 > 100 µM | HCT-116 > 100 µM | U-251 > 100 µM | SF-539 > 100 µM | SK-MEL-2 > 100 µM | DU-145 > 100 µM | HOP-62 > 100 µM | CAKI-1 > 100 µM | LOX IMVI > 100 µM | IGROV-1 > 100 µM | PC-3 > 100 µM | MCF7 > 100 µM | K562 69.2 µM | A549 > 100 µM | RXF 393 4.4 µM | TK-10 > 100 µM

CC(NC1=NCCO1)c1cccs1 (configuration not stated)
inactive: UACC-257 18.1 µM | HCT-116 20 µM | U-251 18.1 µM | DU-145 87.9 µM | HOP-62 22.2 µM | IGROV-1 23.1 µM | MCF7 22.7 µM | K562 22.1 µM | A549 52.8 µM | RXF 393 > 10 µM | TK-10 > 100 µM
33.7 µM: HCT-15

O=C(NC(O)(C(F)(F)F)C(F)(F)F)c1ccccc1
> 100 µM: HCT-15
inactive: UACC-257 > 100 µM | OVCAR-3 > 100 µM | HCT-116 > 100 µM | U-251 > 100 µM | SF-539 > 100 µM | SK-MEL-2 > 100 µM | DU-145 > 100 µM | HOP-62 > 100 µM | CAKI-1 > 100 µM | LOX IMVI > 100 µM | IGROV-1 > 100 µM | PC-3 > 100 µM | MCF7 > 100 µM | K562 > 100 µM | A549 > 100 µM | RXF 393 > 100 µM | TK-10 > 100 µM

N#Cc1c(N)n(-c2cccc(C(=O)O)c2)c(=O)c2cc([N+](=O)[O-])ccc12
active: A549 0.505 µM
inactive: UACC-257 > 100 µM | HCT-116 > 100 µM | U-251 > 100 µM | SK-MEL-2 > 100 µM | DU-145 > 100 µM | BT-549 > 100 µM | CAKI-1 > 100 µM | LOX IMVI > 100 µM | PC-3 42 µM | K562 > 100 µM | TK-10 > 100 µM
> 100 µM: HCT-15

CN(C)/N=C1/CCC(C(F)(F)F)(C(F)(F)F)O1
inactive: OVCAR-3 18.5 µM | HCT-116 29.7 µM | U-251 39 µM | SF-539 45.4 µM | SK-MEL-2 20.7 µM | DU-145 47 µM | HOP-62 31.4 µM | CAKI-1 41 µM | LOX IMVI 33.6 µM | IGROV-1 31.2 µM | PC-3 28.9 µM | K562 40.7 µM | A549 37.5 µM | RXF 393 32.6 µM | TK-10 51.4 µM
41.4 µM: HCT-15
